This note sets out measurements from patent publication US11103564B2, “Compositions for the inhibition of Giardia lamblia” (INSTITUT NATIONAL DE LA RECHERCHE AGRONOMIQUE, priority 2014, dated 2021).

Read-outs that look alike come from different tables or passages of the source.

The test system of data set [1] is G. lamblia trophozoites. Description: In vitro G. lamblia growth inhibition assay. Conditions: for IC50: KM-FCS; for inhibitory activity on G. lamblia growth: KM-FCS culture medium, without BSH. In kind it is cell-based, Giardia lamblia.
Data set [2] deals with Giardia trophozoite cultures. Briefly: Screening of lactobacilli strain supernatants for G. lamblia growth inhibition. In kind it is cell-based, Giardia lamblia. Conditions: supernatant, 24 h at 37° C., with bovine bile 0.6 g/L. The method, then:
The inhibitory effect on G. lamblia growth of different lactobacilli strains was screened (cf. table 5). Bacterial supernatant was co-incubated for 24 h at 37° C. with Giardia trophozoite cultures (triplicates), with or without bovine bile (0.6 g/L). […] Table 5 indicates the corresponding internal and official references of the bacterial strains, and bibliographic references.

Data set [3] is classed as biochemical.
Data set [4] in a line: BSH activity on taurodeoxycholic / glycodeoxycholic LB agar. In kind it is biochemical. Conditions: taurodeoxycholic (0.3%) and glycodeoxycholic (0.3%) LB agar, 48 h at 37° C.
Data set [5] concerns G. lamblia trophozoites. Briefly: Effect of recombinant LjLa1 BSH on Giardia trophozoites cultures. The format is cell-based, Giardia lamblia.
Another data set concerns G. lamblia WB clone C6. Briefly: In vivo effect of BSH-47 against G. lamblia in neonatal mice. Conditions: daily gavage day 10 to 15, vs PBS. The method, then: FIG. 13: G. lamblia trophozoites count in the small intestine. Mice were challenged with the trophozoites of G. lamblia WB clone C6 (10^5 trophozoites per animal) at day 10 Animals were treated either with PBS or BSH-47 at 1 μg/ml (0.5 μg per mice), 10 μg/ml (5 μg per mice) or 100 μg/ml (50μg/mice) by daily intragastric gavage until day 15 (n=10 to 11/group). Values are mean±SEM; p<0.05.
Solutions of recombinant BSH-47 solutions (1 μg/ml, 10 μg/ml and 100 μg/ml diluted in NaHCO3 16.4%) were thawed and daily administered by intragastric gavage to neonatal mice (dose were respectively […] per mice) from day 10 to day 15 (day of sacrifice). Control animals received PBS instead of BSH.

The mark [6] stands for this setting: absence of LjLa1sn, trophozoites growth inhibition, read-out: IC50 +/− SD, with culture medium only.
[7] abbreviates: presence of LjLa1sn, read-out: IC50 +/− SD, with bacterial spent culture medium.
[8] abbreviates: Giardia duodenalis, absence of LjLa1sn, trophozoites growth inhibition, read-out: IC50 +/− SD, with culture medium only.
The mark [9] stands for this setting: Giardia duodenalis, presence of LjLa1sn, read-out: IC50 +/− SD, with bacterial spent culture medium.
The mark [10] stands for this setting: 0.0001 μg/ml to 10 μg/ml, presence of bovine bile (0.06 g/L).

`C[C@H](CCC(=O)O)[C@H]1CC[C@H]2[C@@H]3[C@H](O)C[C@@H]4C[C@H](O)CC[C@]4(C)[C@H]3C[C@H](O)[C@]12C` [C, Cholate]: the IC50 in the data set with G. lamblia trophozoites [1] (setting [6]) and with G. lamblia trophozoites [1] (setting [7]) was greater than 400 µM each time.

For the molecule `C[C@H](CCC(=O)O)[C@H]1CC[C@H]2[C@@H]3[C@H](O)C[C@@H]4C[C@H](O)CC[C@]4(C)[C@H]3CC[C@]12C` [CDC, Chenodesoxycholate], the values for the IC50 in the data set with G. lamblia trophozoites [1] (setting [8]) and with G. lamblia trophozoites [1] (setting [9]) were 147 µM and 118 µM, respectively.

For the molecule `CC(=O)O[C@H]1C[C@@]2(C)[C@@H](C[C@@H](O)[C@H]3[C@@]4(C)CC[C@@H](O)[C@@H](C)[C@@H]4CC[C@@]32C)/C1=C(\CCC=C(C)C)C(=O)O` [FA, Fusidic acid], the IC50 in the data set with G. lamblia trophozoites [1] (setting [8]) worked out at 26 µM.

Turning to `C[C@H](CCC(=O)NCC(=O)O)[C@H]1CC[C@H]2[C@@H]3[C@H](O)C[C@@H]4C[C@H](O)CC[C@]4(C)[C@H]3C[C@H](O)[C@]12C` [GC, Glycocholate], the IC50 in the data set with G. lamblia trophozoites [1] (setting [8]) and in the data set with G. lamblia trophozoites [1] (setting [9]) was greater than 400 µM in each case.

Regarding `C[C@H](CCC(=O)NCC(=O)O)[C@H]1CC[C@H]2[C@@H]3[C@H](O)C[C@@H]4C[C@H](O)CC[C@]4(C)[C@H]3CC[C@]12C` [GCDC, Glycochenodesoxycholate], the figures for the IC50 in the data set with G. lamblia trophozoites [1] (setting [8]) and with G. lamblia trophozoites [1] (setting [9]) were greater than 400 µM and 110 µM, respectively. Besides, in the data set with G. lamblia trophozoites [1], the “inhibitory activity on G. lamblia growth” value is “no inhibitory activity”.

With `C[C@H](CCC(=O)NCC(=O)O)[C@H]1CC[C@H]2[C@@H]3CC[C@@H]4C[C@H](O)CC[C@]4(C)[C@H]3C[C@H](O)[C@]12C` [GDC, Glycodesoxycholate], the IC50 is greater than 400 µM in the data set with G. lamblia trophozoites [1] (setting [8]) and 104 µM with G. lamblia trophozoites [1] (setting [9]). Moreover, in the data set on G. lamblia trophozoites [1], the “inhibitory activity on G. lamblia growth” value was “no inhibitory activity”.

`C[C@H](CCC(=O)NCCS(=O)(=O)O)[C@H]1CC[C@H]2[C@@H]3[C@H](O)C[C@@H]4C[C@H](O)CC[C@]4(C)[C@H]3CC[C@]12C` [TCDC, Taurochenodesoxycholate]: the IC50 was greater than 400 µM with G. lamblia trophozoites [1] (setting [8]) and 115 µM with G. lamblia trophozoites [1] (setting [9]). Also, the “inhibitory activity on G. lamblia growth” value in the data set with G. lamblia trophozoites [1] was “no inhibitory activity”.

With `C[C@H](CCC(=O)NCCS(=O)(=O)O)[C@H]1CC[C@H]2[C@@H]3CC[C@@H]4C[C@H](O)CC[C@]4(C)[C@H]3C[C@H](O)[C@]12C` [TDC, Taurodesoxycholate], in the data set on G. lamblia trophozoites [1], the “inhibitory activity on G. lamblia growth” value is on record as “no inhibitory activity”. In addition, the IC50 was greater than 400 µM in the data set with G. lamblia trophozoites [1] (setting [6]) and 79 µM in the data set on G. lamblia trophozoites [1] (setting [7]).

With Desoxycholate [DC], the IC50 turned out to be 132 µM in the data set on G. lamblia trophozoites [1] (setting [6]) and 117 µM in the data set with G. lamblia trophozoites [1] (setting [7]).

On to Lactobacillus acidophilus, for which the “inhibitory effect on G. lamblia growth” value in data set [2] is reported as “potent inhibitors”.

As to Lactobacillus reuteri, the “inhibitory effect on G. lamblia growth” value in data set [2] was “potent inhibitors”.

B1: BSH-47: recombinant L. johnsonii La1 bile-salt hydrolase LJ1147 produced in E. coli, His-Tag purified (protein)
chain: MCTSILYSPKDNYFGRNLDYEIAYGQKVVITPRNYQLNYRHLPTQDTHYAMIGVSVVANDYPLYCDAINEKGLGIAGLNFTGPGKYFSVDESKKNVTSFELIPYLLSNCETIEDVKKLLSETNITDESFSKDLPVTTLHWLMGDKSGKSIVIESTETGLHVYDNPVNTLTNNPVFPAQVETLANFASVSPAQPKNTLVPNADINLYSRGLGTHHLPGGTDSNSRFIKASFVLAHSPKGNDEVENVTNFFHVLHSVEQAKGTDEVEDNVFEFTMYSDCMNLDKGILYFTTYDNNQINAVDMNNEDLGTSDLITYELFKDQAIKFEN
modifications: His-tag; Lactobacillus johnsonii BSH-47
notes: recombinant L. johnsonii La1 bile-salt hydrolase LJ1147 produced in E. coli, His-Tag purified
For the molecule B1, the Specific activity in data set [3] (glycine release) is 0.066 μmole of glycine/5 min at 37°; in data set [3] (taurine release) it was 0.717 μmole taurine/5 min at 37° C./. Moreover, the “substrate specificity on agar” value in data set [4] is recorded as “taurospecific”. The “inhibitory effect on G. lamblia trophozoites” value in the data set on G. lamblia trophozoites [5] (setting [10]) is listed as “strong inhibitory effects”; with G. lamblia trophozoites [5] (without bovine bile) it was “no inhibitory effect”. The “effect on Giardia trophozoites cultures” value in the data set on G. lamblia trophozoites [5] (0.96 U, with bovine bile (0.06 g/L)) is reported as “exhibits an inhibiting effect”. Further, the “parasite load in the small intestine” value in the data set on G. lamblia WB clone C6 (100 μg/ml group) was “significant reduction”. In addition, in the data set on G. lamblia WB clone C6 (all groups: 1, 10 and 100 μg/ml), the “trophozoites load in the small intestine” value is “reduction in trophozoites load”.

B2: BSH-56: recombinant L. johnsonii La1 bile-salt hydrolase LJ0056 produced as BSH-47 (protein)
chain: MCTGLRFTDDQGNLYFGRNLDVGQDYGEGVIITPRNYPLPYKFLDNTTTKKAVIGMGIVVDGYPSYFDCYNEDGLGIAGLNFPHFAKFSDGPIDGKINLASYEIMLWVTQNFTHVSEVKEALKNVNLVNEAINTSFAVAPLHWIISDSDEAIIVEVSKQYGMKVFDDKVGVLTNSPDFNWHLTNLGNYTGLNPHDATAQSWNGQKVAPWGVGTGSLGLPGDSIPADRFVKAAYLNVNYPTAKGEKANVAKFFNILKSVAMIKGSVVNDQGKDEYTVYTACYSSGSKTYYCNFEDDFELKTYKLDDHTMNSTSLVTY
modifications: Lactobacillus johnsonii BSH-56
As for B2, the Specific activity in data set [3] (glycine release) is on record as 0.536 μmole of glycine/5 min at 37°; in data set [3] (taurine release) it was 2.604 μmole taurine/5 min at 37° C./. Besides, the “inhibitory effect on G. lamblia trophozoites” value in the data set on G. lamblia trophozoites [5] (setting [10]) is recorded as “strong inhibitory effects”; with G. lamblia trophozoites [5] (without bovine bile) it was “no inhibitory effect”.
